ChEMBL document CHEMBL4507287, “Data for DCP probe MRL-650” (2021)

Key:
[1] = target: cGMP-dependent protein kinase 1 (Homo sapiens) (UniProt Q13976); conditions: Compound concentration 1000.0 nM
[2] = target: Leukocyte tyrosine kinase receptor (Homo sapiens) (UniProt P29376); conditions: Compound concentration 1000.0 nM
[3] = target: Homeodomain-interacting protein kinase 1 (Homo sapiens) (UniProt Q86Z02); conditions: Compound concentration 1000.0 nM
[4] = target: Tyrosine-protein kinase Fgr (Homo sapiens) (UniProt P09769); conditions: Compound concentration 1000.0 nM
[5] = target: Ephrin type-A receptor 5 (Homo sapiens) (UniProt P54756); conditions: Compound concentration 1000.0 nM
[6] = tested on: Hepatocyte growth factor receptor (Homo sapiens), P08581 [Y1235D]; conditions: Compound concentration 1000.0 nM
[7] = target: Serine/threonine-protein kinase OSR1 (Homo sapiens) (UniProt O95747); conditions: Compound concentration 1000.0 nM
[8] = target: Serine/threonine-protein kinase PAK 1 (Homo sapiens) (UniProt Q13153); conditions: Compound concentration 1000.0 nM
[9] = target: Mast/stem cell growth factor receptor Kit (Homo sapiens) (UniProt P10721); conditions: Compound concentration 1000.0 nM
[10] = target: Phosphatidylinositol 4-kinase beta (Homo sapiens) (UniProt Q9UBF8); conditions: Compound concentration 1000.0 nM
[11] = target: Serine/threonine-protein kinase PLK1 (Homo sapiens) (UniProt P53350); conditions: Compound concentration 1000.0 nM
[12] = target: Serine/threonine-protein kinase PAK 5 (Homo sapiens) (UniProt Q9P286); conditions: Compound concentration 1000.0 nM
[13] = target: Mitogen-activated protein kinase 10 (Homo sapiens) (UniProt P53779); conditions: Compound concentration 1000.0 nM
[14] = target: Cyclin-dependent kinase 4 (Homo sapiens) (UniProt P11802); conditions: Compound concentration 1000.0 nM
[15] = target: Ephrin type-B receptor 3 (Homo sapiens) (UniProt P54753); conditions: Compound concentration 1000.0 nM
Chain of Ephrin type-B receptor 3 (Homo sapiens) (P54753 whole entry): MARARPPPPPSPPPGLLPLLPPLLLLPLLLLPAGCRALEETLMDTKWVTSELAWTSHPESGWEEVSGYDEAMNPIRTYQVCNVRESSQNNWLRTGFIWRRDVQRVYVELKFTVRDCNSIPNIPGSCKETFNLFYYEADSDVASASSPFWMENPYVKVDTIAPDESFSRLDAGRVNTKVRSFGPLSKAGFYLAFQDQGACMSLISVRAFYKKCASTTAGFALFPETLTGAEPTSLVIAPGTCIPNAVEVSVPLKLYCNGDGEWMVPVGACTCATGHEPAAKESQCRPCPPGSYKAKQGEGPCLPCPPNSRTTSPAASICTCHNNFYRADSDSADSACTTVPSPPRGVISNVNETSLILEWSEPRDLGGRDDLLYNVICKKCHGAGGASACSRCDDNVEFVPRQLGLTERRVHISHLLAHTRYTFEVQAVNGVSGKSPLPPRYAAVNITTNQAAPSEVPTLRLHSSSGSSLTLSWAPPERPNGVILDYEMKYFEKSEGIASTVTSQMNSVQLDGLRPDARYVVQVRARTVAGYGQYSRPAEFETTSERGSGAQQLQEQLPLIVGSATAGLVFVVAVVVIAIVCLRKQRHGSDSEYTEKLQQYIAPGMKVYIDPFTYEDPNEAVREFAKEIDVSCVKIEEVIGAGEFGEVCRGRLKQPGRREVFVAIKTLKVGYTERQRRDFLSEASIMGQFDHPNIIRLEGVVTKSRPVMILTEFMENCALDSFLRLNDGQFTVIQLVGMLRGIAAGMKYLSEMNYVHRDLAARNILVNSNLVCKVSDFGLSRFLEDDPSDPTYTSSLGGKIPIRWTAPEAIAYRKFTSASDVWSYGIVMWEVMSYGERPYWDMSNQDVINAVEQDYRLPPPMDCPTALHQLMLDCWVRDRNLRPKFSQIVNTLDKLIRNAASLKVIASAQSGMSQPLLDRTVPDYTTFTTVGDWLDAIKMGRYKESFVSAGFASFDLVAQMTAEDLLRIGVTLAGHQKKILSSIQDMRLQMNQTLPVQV

[16] = target: SRSF protein kinase 3 (Homo sapiens) (UniProt Q9UPE1); conditions: Compound concentration 1000.0 nM
[17] = target: Homeodomain-interacting protein kinase 2 (Homo sapiens) (UniProt Q9H2X6); conditions: Compound concentration 1000.0 nM
[18] = target: Megakaryocyte-associated tyrosine-protein kinase (Homo sapiens) (UniProt P42679); conditions: Compound concentration 1000.0 nM
[19] = target: Mitogen-activated protein kinase 1 (Homo sapiens) (UniProt P28482); conditions: Compound concentration 1000.0 nM
[20] = target: Non-receptor tyrosine-protein kinase TYK2 (Homo sapiens) (UniProt P29597); conditions: Compound concentration 1000.0 nM
Chain of Non-receptor tyrosine-protein kinase TYK2 (Homo sapiens) (P29597 whole entry): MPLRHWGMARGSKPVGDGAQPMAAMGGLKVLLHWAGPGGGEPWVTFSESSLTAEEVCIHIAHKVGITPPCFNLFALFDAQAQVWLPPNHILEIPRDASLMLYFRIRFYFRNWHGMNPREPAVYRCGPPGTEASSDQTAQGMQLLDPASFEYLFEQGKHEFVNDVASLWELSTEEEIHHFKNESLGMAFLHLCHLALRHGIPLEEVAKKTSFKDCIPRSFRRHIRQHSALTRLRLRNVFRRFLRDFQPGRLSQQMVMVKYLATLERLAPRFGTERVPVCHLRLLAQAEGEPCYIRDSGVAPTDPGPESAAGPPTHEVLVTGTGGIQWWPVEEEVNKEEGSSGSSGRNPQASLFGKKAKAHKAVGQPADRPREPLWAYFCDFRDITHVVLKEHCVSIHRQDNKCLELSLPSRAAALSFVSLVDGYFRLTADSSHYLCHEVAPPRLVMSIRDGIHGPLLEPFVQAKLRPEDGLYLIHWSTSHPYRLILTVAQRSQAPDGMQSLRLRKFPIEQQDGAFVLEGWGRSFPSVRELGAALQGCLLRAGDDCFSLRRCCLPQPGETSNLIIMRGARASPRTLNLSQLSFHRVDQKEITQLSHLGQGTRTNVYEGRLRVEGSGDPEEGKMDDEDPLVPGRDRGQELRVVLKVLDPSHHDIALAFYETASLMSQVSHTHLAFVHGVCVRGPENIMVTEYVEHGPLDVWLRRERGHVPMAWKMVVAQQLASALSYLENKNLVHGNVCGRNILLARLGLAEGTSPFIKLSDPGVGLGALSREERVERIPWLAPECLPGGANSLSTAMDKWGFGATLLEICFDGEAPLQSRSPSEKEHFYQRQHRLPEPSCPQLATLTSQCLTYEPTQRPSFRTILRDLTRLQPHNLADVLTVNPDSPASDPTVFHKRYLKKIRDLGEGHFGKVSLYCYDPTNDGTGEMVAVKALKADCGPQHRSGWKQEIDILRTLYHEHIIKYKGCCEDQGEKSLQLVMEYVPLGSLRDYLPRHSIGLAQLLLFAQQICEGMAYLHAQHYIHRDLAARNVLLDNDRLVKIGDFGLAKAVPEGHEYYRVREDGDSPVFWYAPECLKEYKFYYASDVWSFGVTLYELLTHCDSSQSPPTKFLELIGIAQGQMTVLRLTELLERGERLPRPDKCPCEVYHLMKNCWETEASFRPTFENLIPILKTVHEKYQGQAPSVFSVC

[21] = target: Serine/threonine-protein kinase LATS1 (Homo sapiens) (UniProt O95835); conditions: Compound concentration 1000.0 nM
[22] = target: Cyclin-dependent kinase 19 (Homo sapiens) (UniProt Q9BWU1); conditions: Compound concentration 1000.0 nM
[23] = target: Cyclin-dependent kinase 8 (Homo sapiens) (UniProt P49336); conditions: Compound concentration 1000.0 nM
Chain of Cyclin-dependent kinase 8 (Homo sapiens) (P49336 whole entry): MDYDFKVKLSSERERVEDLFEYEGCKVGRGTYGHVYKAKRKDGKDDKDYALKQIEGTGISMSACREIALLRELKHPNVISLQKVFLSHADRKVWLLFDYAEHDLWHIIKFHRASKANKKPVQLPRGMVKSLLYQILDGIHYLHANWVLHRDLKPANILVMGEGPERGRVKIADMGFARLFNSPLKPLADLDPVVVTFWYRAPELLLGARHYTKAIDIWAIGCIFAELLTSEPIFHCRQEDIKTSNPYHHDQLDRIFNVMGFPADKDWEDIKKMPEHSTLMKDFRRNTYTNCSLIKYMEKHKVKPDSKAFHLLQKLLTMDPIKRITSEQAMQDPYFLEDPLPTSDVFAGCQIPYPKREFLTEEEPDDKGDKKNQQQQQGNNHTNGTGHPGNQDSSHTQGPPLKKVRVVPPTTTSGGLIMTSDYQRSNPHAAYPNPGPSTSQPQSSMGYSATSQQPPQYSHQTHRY

[24] = target: Calcium/calmodulin-dependent protein kinase type IV (Homo sapiens) (UniProt Q16566); conditions: Compound concentration 1000.0 nM
[25] = target: Microtubule-associated serine/threonine-protein kinase 1 (Homo sapiens) (UniProt Q9Y2H9); conditions: Compound concentration 1000.0 nM
Chain of Microtubule-associated serine/threonine-protein kinase 1 (Homo sapiens) (Q9Y2H9 whole entry, looked up): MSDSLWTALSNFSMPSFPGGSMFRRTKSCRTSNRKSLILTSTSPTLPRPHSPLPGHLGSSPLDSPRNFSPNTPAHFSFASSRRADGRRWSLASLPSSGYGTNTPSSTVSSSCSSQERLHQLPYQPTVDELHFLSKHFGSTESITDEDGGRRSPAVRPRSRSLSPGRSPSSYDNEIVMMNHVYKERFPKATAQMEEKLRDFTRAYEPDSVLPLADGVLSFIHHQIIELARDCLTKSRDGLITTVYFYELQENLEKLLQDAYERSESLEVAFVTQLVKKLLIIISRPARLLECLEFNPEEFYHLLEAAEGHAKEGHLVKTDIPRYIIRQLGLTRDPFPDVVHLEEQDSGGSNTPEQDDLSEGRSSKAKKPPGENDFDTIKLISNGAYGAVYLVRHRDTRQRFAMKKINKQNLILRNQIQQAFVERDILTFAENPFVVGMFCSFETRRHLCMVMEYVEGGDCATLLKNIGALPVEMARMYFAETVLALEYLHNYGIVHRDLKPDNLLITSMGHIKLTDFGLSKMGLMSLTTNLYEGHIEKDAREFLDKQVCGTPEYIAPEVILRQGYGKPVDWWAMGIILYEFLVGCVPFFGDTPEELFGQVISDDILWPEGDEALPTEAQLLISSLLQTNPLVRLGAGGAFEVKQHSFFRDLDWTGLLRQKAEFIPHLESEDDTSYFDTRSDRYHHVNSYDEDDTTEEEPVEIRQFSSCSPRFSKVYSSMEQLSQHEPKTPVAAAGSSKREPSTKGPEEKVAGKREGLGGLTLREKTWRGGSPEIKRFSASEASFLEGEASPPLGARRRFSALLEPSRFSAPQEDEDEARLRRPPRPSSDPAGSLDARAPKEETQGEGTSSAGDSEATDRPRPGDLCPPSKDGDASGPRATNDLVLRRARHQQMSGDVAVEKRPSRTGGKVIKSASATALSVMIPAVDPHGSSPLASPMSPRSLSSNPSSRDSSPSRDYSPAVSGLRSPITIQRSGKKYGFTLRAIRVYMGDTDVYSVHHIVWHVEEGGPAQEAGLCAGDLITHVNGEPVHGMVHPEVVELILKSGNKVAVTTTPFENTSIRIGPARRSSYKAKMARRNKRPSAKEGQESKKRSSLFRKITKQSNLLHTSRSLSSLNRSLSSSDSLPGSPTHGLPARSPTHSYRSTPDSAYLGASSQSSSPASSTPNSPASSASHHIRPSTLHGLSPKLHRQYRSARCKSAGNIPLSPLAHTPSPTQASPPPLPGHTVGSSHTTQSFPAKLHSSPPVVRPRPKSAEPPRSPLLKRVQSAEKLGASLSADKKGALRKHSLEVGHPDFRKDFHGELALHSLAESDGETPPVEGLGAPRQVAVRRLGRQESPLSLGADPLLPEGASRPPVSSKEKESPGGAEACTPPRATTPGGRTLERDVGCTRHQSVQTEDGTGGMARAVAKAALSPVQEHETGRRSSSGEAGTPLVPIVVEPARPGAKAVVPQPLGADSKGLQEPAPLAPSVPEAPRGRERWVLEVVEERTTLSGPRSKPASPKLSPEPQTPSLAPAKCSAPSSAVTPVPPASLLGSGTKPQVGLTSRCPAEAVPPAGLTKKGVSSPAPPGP

[26] = target: Phosphatidylinositol 5-phosphate 4-kinase type-2 beta (Homo sapiens) (UniProt P78356); conditions: Compound concentration 1000.0 nM
[27] = target: Serine/threonine-protein kinase SBK1 (Homo sapiens) (UniProt Q52WX2); conditions: Compound concentration 1000.0 nM
[28] = target: 1-phosphatidylinositol 3-phosphate 5-kinase (Homo sapiens) (UniProt Q9Y2I7); conditions: Compound concentration 1000.0 nM
[29] = target: Ribosomal protein S6 kinase alpha-2 (Homo sapiens) (UniProt Q15349); conditions: Compound concentration 1000.0 nM
[30] = target: Cyclin-dependent kinase 2 homolog (Plasmodium falciparum (isolate 3D7)) (UniProt P61075); conditions: Compound concentration 1000.0 nM
[31] = target: Serine/threonine-protein kinase ULK3 (Homo sapiens) (UniProt Q6PHR2); conditions: Compound concentration 1000.0 nM
[32] = target: Mitogen-activated protein kinase kinase kinase 9 (Homo sapiens) (UniProt P80192); conditions: Compound concentration 1000.0 nM
[33] = target: Sigma intracellular receptor 2 (Homo sapiens, UniProt Q5BJF2); conditions: Compound concentration 10.0 uM
[34] = target: Rho-associated protein kinase 2 (Homo sapiens) (UniProt O75116); conditions: Compound concentration 1000.0 nM
[35] = target: Mitogen-activated protein kinase kinase kinase kinase 1 (Homo sapiens) (UniProt Q92918); conditions: Compound concentration 1000.0 nM
[36] = target: Epidermal growth factor receptor (Homo sapiens) (UniProt P00533); conditions: Compound concentration 1000.0 nM
[37] = target: Serine/threonine-protein kinase PAK 2 (Homo sapiens) (UniProt Q13177); conditions: Compound concentration 1000.0 nM
[38] = target: Non-receptor tyrosine-protein kinase TYK2 (Homo sapiens) (UniProt P29597); conditions: Compound concentration 1000.0 nM; remark: listed apart in the source
[39] = target: Serine/threonine-protein kinase SIK1 (Homo sapiens) (UniProt P57059); conditions: Compound concentration 1000.0 nM
Chain of Serine/threonine-protein kinase SIK1 (Homo sapiens) (P57059 whole entry): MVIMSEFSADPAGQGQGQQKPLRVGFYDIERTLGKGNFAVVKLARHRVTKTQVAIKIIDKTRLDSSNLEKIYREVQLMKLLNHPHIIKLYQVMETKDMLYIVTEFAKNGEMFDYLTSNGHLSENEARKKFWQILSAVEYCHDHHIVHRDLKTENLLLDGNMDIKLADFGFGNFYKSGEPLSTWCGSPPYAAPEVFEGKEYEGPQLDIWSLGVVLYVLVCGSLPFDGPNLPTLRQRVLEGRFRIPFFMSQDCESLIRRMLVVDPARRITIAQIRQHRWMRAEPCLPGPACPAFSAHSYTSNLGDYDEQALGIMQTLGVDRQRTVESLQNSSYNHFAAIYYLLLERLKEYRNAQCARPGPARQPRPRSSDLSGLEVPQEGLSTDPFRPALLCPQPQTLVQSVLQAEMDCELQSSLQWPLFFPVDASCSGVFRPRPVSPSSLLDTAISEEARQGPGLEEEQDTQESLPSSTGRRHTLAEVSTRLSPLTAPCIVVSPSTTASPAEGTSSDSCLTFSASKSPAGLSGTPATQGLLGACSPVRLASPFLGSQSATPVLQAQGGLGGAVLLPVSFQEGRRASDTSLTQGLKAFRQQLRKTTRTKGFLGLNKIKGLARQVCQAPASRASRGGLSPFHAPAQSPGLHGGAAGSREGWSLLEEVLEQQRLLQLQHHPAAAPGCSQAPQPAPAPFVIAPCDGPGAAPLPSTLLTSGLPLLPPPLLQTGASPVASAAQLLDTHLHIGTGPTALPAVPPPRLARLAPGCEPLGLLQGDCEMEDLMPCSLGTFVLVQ

[40] = target: Calcium/calmodulin-dependent protein kinase kinase 2 (Homo sapiens) (UniProt Q96RR4); conditions: Compound concentration 1000.0 nM
[41] = target: Serine/threonine-protein kinase Nek2 (Homo sapiens) (UniProt P51955); conditions: Compound concentration 1000.0 nM
[42] = target: Serine/threonine-protein kinase ULK1 (Homo sapiens) (UniProt O75385); conditions: Compound concentration 1000.0 nM
[43] = target: Cyclin-dependent kinase 16 (Homo sapiens) (UniProt Q00536); conditions: Compound concentration 1000.0 nM
[44] = target: Tyrosine-protein kinase receptor Tie-1 (Homo sapiens) (UniProt P35590); conditions: Compound concentration 1000.0 nM
[45] = target: Dual specificity mitogen-activated protein kinase kinase 7 (Homo sapiens) (UniProt O14733); conditions: Compound concentration 1000.0 nM

CC(=O)c1c(NS(C)(=O)=O)c2cc(-c3ccc(Cl)cc3)c(-c3ccc(Cl)cc3Cl)nc2n(C)c1=O [MRL-CB1-NC]
inactive: residual activity [1] 75% | residual activity [2] 100% | residual activity [3] 96% | residual activity [4] 100% | residual activity [5] 100% | residual activity [6] 95% | residual activity [7] 79% | residual activity [8] 96% | residual activity [9] 100% | residual activity [10] 74% | residual activity [11] 87% | residual activity [12] 98% | residual activity [13] 78% | residual activity [14] 94% | residual activity [15] 100% | residual activity [16] 100% | residual activity [17] 87% | residual activity [18] 83% | residual activity [19] 100% | residual activity [20] 89% | residual activity [21] 81% | residual activity [22] 100% | residual activity [23] 83% | residual activity [24] 100% | residual activity [25] 100% | residual activity [26] 65% | residual activity [27] 77% | residual activity [28] 66% | residual activity [29] 80% | residual activity [30] 100% | residual activity [31] 80% | residual activity [32] 100% | inhibition [33] 17.6% | residual activity [34] 100% | residual activity [35] 100% | residual activity [36] 100% | residual activity [37] 100% | residual activity [38] 94% | residual activity [39] 100% | residual activity [40] 100% | residual activity [41] 100% | residual activity [42] 67% | residual activity [43] 76% | residual activity [44] 100% | residual activity [45] 100%

CC(=O)Nc1c(C(C)=O)c(=O)n(C)c2nc(-c3ccc(Cl)cc3Cl)c(-c3ccc(Cl)cc3)cc12 [NAPHTHYRIDINONE]
inactive: residual activity [1] 100% | residual activity [2] 100% | residual activity [3] 99% | residual activity [4] 100% | residual activity [5] 100% | residual activity [6] 100% | residual activity [7] 93% | residual activity [8] 100% | residual activity [9] 100% | residual activity [10] 100% | residual activity [11] 100% | residual activity [12] 100% | residual activity [13] 100% | residual activity [14] 100% | residual activity [15] 100% | residual activity [16] 100% | residual activity [17] 100% | residual activity [18] 100% | residual activity [19] 100% | residual activity [20] 100% | residual activity [21] 98% | residual activity [22] 100% | residual activity [23] 100% | residual activity [24] 100% | residual activity [25] 100% | residual activity [26] 91% | residual activity [27] 80% | residual activity [28] 100% | residual activity [29] 100% | residual activity [30] 100% | residual activity [31] 75% | residual activity [32] 100% | residual activity [34] 100% | residual activity [35] 91% | residual activity [36] 100% | residual activity [37] 100% | residual activity [38] 100% | residual activity [39] 100% | residual activity [40] 100% | residual activity [41] 100% | residual activity [42] 66% | residual activity [43] 100% | residual activity [44] 100% | residual activity [45] 100%
active: inhibition [33] 54.6%
